Measured values reported in patent US5482957A, “Azole derivatives, process for their preparation and their use” (Hoechst Aktiengesellschaft, priority 1991, dated 1996).

Target: angiotensin II receptor
Assay: Displacement of 125I- or 3H-angiotensin II from receptor preparations from various organs (liver, lung, adrenal gland, brain etc.)
Assay type: binding
Conditions: Table 1; radioligand displacement, 25° C., 90 min, pH 7.4
Protocol: Alternatively, the affinity of the compounds of the formula I for the angiotensin II receptor can be determined by measurement of the ^125 I-angiotensin II or ^3 H-angiotensin II displacement of receptor preparations from various organs (liver, lung, adrenal gland, brain etc.).
To this end, the prepared membranes are suspended in an incubation buffer ([…], pH 7.4, containing 135 mM NaCl, 10 mM KCl, 10 mM MgCl2, 5 mM glucose, 0.2% bovine serum albumin and the protease inhibitors PMSF, 0.3 mM, and bacitracin, 0.1 mM) and incubated at 25° C. for 90 min together with the radioactively labeled angiotensin II and various concentrations of the compounds to be tested. Bound and free radioligand are then separated by filtration through micro glass fiber filters (GF51, Schleicher and Schull) in a cell collector (SKATRON).
The degree of displacement of the radioligand from the receptor by the test compounds is determined by measurement of the receptor-bound radioactivity on the filters by means of a beta- or gamma-spectrometer. The amount of the displacement of the radioligand from the receptor by the test compounds is indicated by the IC50, i.e. the concentration of the inhibitor which displaces 50% of the bound radioligand from the receptor. The calculation of the IC50 values is carried out by means of PC software (LIGAND, G. A. McPherson 1985, Elsevier BIOSOFT, 68 Hills Road, Cambridge, CB2 1LA, UK.).

Row | SMILES | IC50 [nM]
1 | CCCCc1nc(Cl)c(C=O)n1Cc1ccc(-c2ccccc2S(=O)(=O)NC(=O)Nc2ccccc2)cc1 [Example 1, 1-[(2'-phenylaminocarbonylaminosulfonylbiphenyl-4-yl)methyl]-2-n-butyl-4-chloroimidazole-5-carboxaldehyde] | 5000
2 | CCCCc1nc(Cl)c(C=O)n1Cc1ccc(-c2ccccc2S(=O)(=O)NC(=O)NCCC)cc1 [Example 2, 1-[(2'-n-propylaminocarbonylaminosulfonylbiphenyl-4-yl)methyl]-2-n-butyl-4-chloroimidazole-5-carboxaldehyde] | 8000
3 | CCCCc1nc(Cl)c(C=O)n1Cc1ccc(-c2cccc(S(=O)(=O)NC(=O)Nc3ncccn3)c2)cc1 [Example 4] | 1100
4 | CCCCc1nc(Cl)c(C=O)n1Cc1ccc(-c2cccc(S(=O)(=O)NC(=O)Nc3nnn[nH]3)c2)cc1 [Example 5] | 16000
5 | CCCCc1nc(Cl)c(C=O)n1Cc1ccc(-c2ccccc2S(=O)(=O)NC(=O)Nc2ccc([N+](=O)[O-])cc2)cc1 [Example 22] | 2000
6 | CCCCc1nc(Cl)c(C=O)n1Cc1ccc(-c2ccccc2S(=O)(=O)NC(=O)Nc2ccccc2F)cc1 [Example 24] | 800
7 | CCCCc1nc(Cl)c(C=O)n1Cc1ccc(-c2ccccc2S(=O)(=O)NC(=O)Nc2ccc(F)cc2)cc1 [Example 25] | 1400
8 | CCCCc1nc(Cl)c(C=O)n1Cc1ccc(-c2ccccc2S(=O)(=O)NC(=O)NCCN2CCCCC2)cc1 [Example 30] | 2030
9 | CCCCc1nc(Cl)c(C=O)n1Cc1ccc(-c2ccccc2S(=O)(=O)NC(=O)NC2CN3CCC2CC3)cc1 (stereo not shown) [Example 31] | 153
10 | CCCCc1nc(Cl)c(C=O)n1Cc1ccc(-c2ccccc2S(=O)(=O)NC(=O)Nc2nc(C)cs2)cc1 [Example 32] | 3.5
11 | CCCCc1nc(Cl)c(C=O)n1Cc1ccc(-c2ccccc2S(=O)(=O)NC(=O)Nc2ccccc2OC)cc1 [Example 33] | 34
12 | CCCCc1nc(Cl)c(C=O)n1Cc1ccc(-c2ccccc2S(=O)(=O)NC(=O)Nc2ccc(C)cc2)cc1 [Example 35] | 50
13 | CCCCc1nc(Cl)c(C=O)n1Cc1ccc(-c2ccccc2S(=O)(=O)NC(=O)Nc2ccccc2C)cc1 [Example 36] | 16
14 | C=CCNC(=O)NS(=O)(=O)c1ccccc1-c1ccc(Cn2c(CCCC)nc(Cl)c2C=O)cc1 [Example 55, 1-[(2'-allylaminocarbonylaminosulfonylbiphenyl-4-yl)methyl]-2-n-butyl-4-chloroimidazole-5-carboxaldehyde] | 8.8
15 | C=CCNC(=O)NS(=O)(=O)c1ccccc1-c1ccc(Cn2c(CCCC)nc(SC)c2C(=O)O)cc1 [Example 56, 1-[(2'-allylaminocarbonylaminosulfonylbiphenyl-4-yl)methyl]-2-n-butyl-4-methylthioimidazole-5-carboxylic acid] | 4.6
16 | CCCCc1nc(SC)c(C(=O)O)n1Cc1ccc(-c2ccccc2S(=O)(=O)NC(=O)NCCC2=CCCCC2)cc1 [Example 62] | 3.6
17 | CCCCc1nc(SC)c(C(=O)OCC)n1Cc1ccc(-c2ccccc2S(=O)(=O)NC(=O)NCCc2ccccc2)cc1 [Example 66] | 6.9
18 | CCCCc1nc(SC)c(C(=O)OCC)n1Cc1ccc(-c2ccccc2S(=O)(=O)NC(=O)N[C@H](C(=O)OC)C(C)CC)cc1 (stereo partly shown) [Example 68] | 12
19 | CCCCc1nc(SC)c(C(=O)OCC)n1Cc1ccc(-c2ccccc2S(=O)(=O)NC(=O)N[C@H](C(=O)OC)C(C)C)cc1 [Example 69] | 3.2
20 | CCCCc1nc(SC)c(C(=O)OCC)n1Cc1ccc(-c2ccccc2S(=O)(=O)NC(=O)NCCCc2ccccc2)cc1 [Example 76] | 9.5
21 | CCCCc1nc(SC)c(C(=O)O)n1Cc1ccc(-c2ccccc2S(=O)(=O)NC(=O)NCCc2cccc(C(F)(F)F)c2)cc1 [Example 79] | 5.8
22 | CCCCc1nc(SC)c(C(=O)OCC)n1Cc1ccc(-c2ccccc2S(=O)(=O)NC(=O)NCc2ccccc2OC)cc1 [Example 84] | 4.3
23 | CCCCc1nc(SC)c(C(=O)OCC)n1Cc1ccc(-c2ccccc2S(=O)(=O)NC(=O)NCc2cccc(OC)c2)cc1 [Example 85] | 3.9
24 | CCCCc1nc(SC)c(C(=O)OCC)n1Cc1ccc(-c2ccccc2S(=O)(=O)NC(=O)NCc2ccc(OC)c(OC)c2)cc1 [Example 92] | 280
25 | CCCCc1nc(SC)c(C(=O)OCC)n1Cc1ccc(-c2ccccc2S(=O)(=O)NC(=O)Nc2ccccc2)cc1 [Example 99] | 26.6
26 | CCCCc1nc(SC)c(C(=O)OCC)n1Cc1ccc(-c2ccccc2S(=O)(=O)NC(=O)Nc2ccc(F)cc2)cc1 [Example 100] | 68.5
27 | CCCCc1nc(SC)c(C(=O)OCC)n1Cc1ccc(-c2ccccc2S(=O)(=O)NC(=O)NCCC)cc1 [Example 105] | 3

More lines, in order of falling IC50, values ahead:

Row | IC50 [nM] | SMILES
28 | 3 | C=CCNC(=O)NS(=O)(=O)c1ccccc1-c1ccc(Cn2c(CCCC)nc(SC)c2C(=O)OCC)cc1 [Example 58]
29 | 2.9 | CCCCc1nc(SC)c(C(=O)O)n1Cc1ccc(-c2ccccc2S(=O)(=O)NC(=O)NCCCN2CCCCC2C)cc1 (stereo not shown) [Example 111]
30 | 2.5 | CCCCc1nc(SC)c(C(=O)OCC)n1Cc1ccc(-c2ccccc2S(=O)(=O)NC(=O)NCc2ccccc2)cc1 [Example 73]
31 | 2.5 | CCCCc1nc(SC)c(C(=O)O)n1Cc1ccc(-c2ccccc2S(=O)(=O)NC(=O)NCCN2CCOCC2)cc1 [Example 107]
32 | 2.4 | CCCCc1nc(SC)c(C(=O)O)n1Cc1ccc(-c2ccccc2S(=O)(=O)NC(=O)Nc2ccc(F)cc2)cc1 [Example 101]
33 | 2.4 | CCCCc1nc(SC)c(C(=O)O)n1Cc1ccc(-c2ccccc2S(=O)(=O)NC(=O)NCCCN2CCCC2=O)cc1 [Example 116]
34 | 2.3 | CCCCc1nc(SC)c(C(=O)O)n1Cc1ccc(-c2ccccc2S(=O)(=O)NC(=O)Nc2ccccc2)cc1 [Example 102]
35 | 2.2 | CCCCc1nc(SC)c(C(=O)O)n1Cc1ccc(-c2ccccc2S(=O)(=O)NC(=O)NCC2CCCCC2)cc1 [Example 60]
36 | 2.2 | CCCCc1nc(SC)c(C(=O)OCC)n1Cc1ccc(-c2ccccc2S(=O)(=O)NC(=O)NCC(=O)OC)cc1 [Example 71]
37 | 1.8 | CCCCc1nc(SC)c(C(=O)OCC)n1Cc1ccc(-c2ccccc2S(=O)(=O)NC(=O)NCCc2ccccn2)cc1 [Example 65]
38 | 1.8 | CCCCc1nc(SC)c(C(=O)OCC)n1Cc1ccc(-c2ccccc2S(=O)(=O)NC(=O)NC(C)c2ccccc2)cc1 (stereo not shown) [Example 95]
39 | 1.5 | CCCCc1nc(SC)c(C(=O)O)n1Cc1ccc(-c2ccccc2S(=O)(=O)NC(=O)NCc2cccnc2)cc1 [Example 112]
40 | 1.4 | CCCCc1nc(SC)c(C(=O)O)n1Cc1ccc(-c2ccccc2S(=O)(=O)NC(=O)N[C@@H](Cc2ccccc2)C(=O)O)cc1 [Example 98]
41 | 1.3 | CCCCc1nc(SC)c(C(=O)O)n1Cc1ccc(-c2ccccc2S(=O)(=O)NC(=O)NC2CCCCC2)cc1 [Example 59]
42 | 1.2 | CCCCc1nc(SC)c(C(=O)OCC)n1Cc1ccc(-c2ccccc2S(=O)(=O)NC(=O)NCC2CCNCC2)cc1 [Example 117]
43 | 1.1 | CCCCc1nc(Cl)c(C=O)n1Cc1ccc(-c2ccccc2S(=O)(=O)NC(=O)NCCc2ccccn2)cc1 [Example 29]

Row | IC50 [nM] | SMILES
44 | 1.1 | CCCCc1nc(Cl)c(C=O)n1Cc1ccc(-c2ccccc2S(=O)(=O)NC(=O)NCCc2ccccc2)cc1 [Example 37]
45 | 1.1 | C=CCN(CC=C)C(=O)NS(=O)(=O)c1ccccc1-c1ccc(Cn2c(CCCC)nc(SC)c2C(=O)O)cc1 [Example 61]
46 | 1.1 | CCCCc1nc(SC)c(C(=O)O)n1Cc1ccc(-c2ccccc2S(=O)(=O)NC(=O)NCc2ccc(OC)c(OC)c2)cc1 [Example 89]
47 | 1 | CCCCc1nc(Cl)c(C=O)n1Cc1ccc(-c2ccccc2S(=O)(=O)NC(=O)NCc2ccc(OC)cc2)cc1 [Example 34]
48 | 0.96 | CCCCc1nc(SC)c(C(=O)O)n1Cc1ccc(-c2ccccc2S(=O)(=O)NC(=O)NCc2ccccc2OC)cc1 [Example 83]
49 | 0.95 | CCCCc1nc(SC)c(C(=O)O)n1Cc1ccc(-c2ccccc2S(=O)(=O)NC(=O)NCCC2CCCN2C)cc1 (stereo not shown) [Example 108]
50 | 0.91 | CCCCc1nc(SC)c(C(=O)O)n1Cc1ccc(-c2ccccc2S(=O)(=O)NC(=O)NCCc2ccccc2)cc1 [Example 67]
51 | 0.9 | CCCCc1nc(SC)c(C(=O)O)n1Cc1ccc(-c2ccccc2S(=O)(=O)NC(=O)NCc2ccncc2)cc1 [Example 115]
52 | 0.79 | CCCCc1nc(SC)c(C(=O)O)n1Cc1ccc(-c2ccccc2S(=O)(=O)NC(=O)NCCCc2ccccc2)cc1 [Example 81]
53 | 0.69 | CCCCc1nc(SC)c(C(=O)O)n1Cc1ccc(-c2ccccc2S(=O)(=O)NC(=O)NCc2ccccc2)cc1 [Example 80]
54 | 0.69 | CCCCc1nc(SC)c(C(=O)O)n1Cc1ccc(-c2ccccc2S(=O)(=O)NC(=O)NCc2ccc(OC)cc2)cc1 [Example 90]
55 | 0.6 | CCCCc1nc(SC)c(C(=O)O)n1Cc1ccc(-c2ccccc2S(=O)(=O)NC(=O)NCC2CC2)cc1 [Example 109]
56 | 0.5 | C#CCNC(=O)NS(=O)(=O)c1ccccc1-c1ccc(Cn2c(CCCC)nc(SC)c2C(=O)O)cc1 [Example 64]
57 | 0.5 | CCCCc1nc(SC)c(C(=O)OCC)n1Cc1ccc(-c2ccccc2S(=O)(=O)NC(=O)NCC2CC2)cc1 [Example 110]
58 | 0.3 | CCCCc1nc(SC)c(C(=O)O)n1Cc1ccc(-c2ccccc2S(=O)(=O)NC(=O)NCc2ccccn2)cc1 [Example 113]
